# Measured values published in article PMC5823406, “Vehicle development, pharmacokinetics and toxicity of the anti-invasive agent 4-fluoro-3’,4’,5’-trimethoxychalcone in rodents” (PLoS ONE, 2018).
# Marks after values point to notes of the source that are not given here.
# Test system: CD-1 mice
# Assay: 7-Day repeat-dose toxicity study (medicated gel)
# Format: in vivo, mouse
# Settings: for Organ weight: Kidneys / Organ weight: Liver / Organ weight: Spleen: Average±SD; for Hyperactivity and increased anxiety on opening of the cages: from day 2 on
# Protocol: Fifteen 7-week old male CD-1 mice, weighing 27 to 34 g, were obtained from Janvier, France. Animals were randomly allocated to one of four cohorts (N = 4 for the 0 mg/kg, 100 mg/kg and 300 mg/kg C16 cohorts, N = 3 for the water control group). Animals were healthy at the start of the trial. Each cohort was housed in one conventional cage with wood chip bedding and kept in a room with a well-controlled temperature (20–24°C) and humidity with 12-h light/dark cycles. Duration of acclimation was five days, during which all animals had ad libitum access to feed and tap water. Feed was obtained from Carfil, Belgium (Complete feed for rats and mice, article n° 10783915). Animals were ear-marked under isoflurane anesthesia (induction 5%, maintenance 2.5%, oxygen 1 L/min) on day -3 of the study. The study was not blinded.
# On the morning of day -2 of the study, tap water access was removed from the 0 mg/kg, 100 mg/kg and 300 mg/kg C16 cohorts. These groups were granted access to two non-medicated cups of Medigel sucralose (one in a tailor-made plastic holder with magnetic fixation system to the side of the cage, one in a cardboard holder on top of the bedding material) for an acclimatization period of three days. Note: the magnetic fixation system is preferable, as animals tear and consume the cardboard holders.
# Medicated gels were prepared in order to provide animals with a PO C16 dose equaling oral gavage dosing at 0, 100 and 300 mg/kg three times per day (0, 78.43 and 235.29 mg C16 per cup, respectively, assuming a consumption of 7 mL of gel per day and an average animal weight of 30 g). On the morning of day 0 of the study, treatment with two medicated gels was started and maintained up to the morning of day 7 (i.e. a 7-day treatment). Fresh cups were prepared and provided every day. Meanwhile, the water control group was continuously granted unlimited access to tap water. Throughout the study, all animals had ad libitum access to feed, except for the water control group, which was fasted on the evening of day 6, i.e. twelve hours prior to the single PO test article administration. Animal weight, feed and water/gel consumption and the presence of toxic symptoms and autonomic effects were monitored on a daily basis for all cohorts.
# On the evening of day 6, blood was collected via the tail vein for the 0, 100 and 300 mg/kg C16 cohorts for determination of the whole blood C16 level. On the morning of day 7, mice of the 0, 100 and 300 mg/kg C16 cohorts were anesthetized by IP injection with 250 mg/kg of Avertin (20 mL/kg, preparation see Section E in S1 File). Blood for C16 determination and hematological and biochemical analysis was collected via cardiac exsanguination (600 μL to 1 mL). Detailed analysis protocols are described below. Afterward, animals were sacrificed by cervical dislocation.
# All animals were necropsied and assessed for gross pathology. Liver, kidneys and spleen weights were recorded, and fragments of these organs were fixed in a 4% formaldehyde solution and processed for microscopic evaluation.
# Cardiac puncture as described above afforded 0.6–1 mL of blood. Approximately 500 μL thereof was collected in a Greiner Bio 0.5 mL ethylenediaminetetraacetic acid (EDTA) Eppendorf tube for hematological parameter determination and kept at room temperature. The remaining volume was collected in a regular Eppendorf tube and allowed to clot completely at room temperature over 45 min. The tubes were centrifuged at 1,900 x g (3000 rpm) and 4 °C for 10 min using a swinging bucket rotor. The upper serum phase was transferred to a new tube with conical bottom. Care was taken not to disturb the intermediate buffy coat layer. The serum samples were centrifuged at 16,000 x g and 4 °C for 10 min in a fixed-angle rotor. The cleared supernatant was transferred to a new tube without disturbing the pellet, affording 200–500 μL of serum. Samples were diluted to 500 μL with normal saline, flash frozen in liquid N2 and stored at -80 °C prior to analysis. […]
# [1] = 100 mg/kg cohort, 7-day PO via medicated gels, average±SD
# [2] = 300 mg/kg cohort, 7-day PO via medicated gels
# [3] = 300 mg/kg cohort, 7-day PO via medicated gels, average±SD
smiles,measurement,setting,value
"COc1cc(C(=O)/C=C/c2ccc(F)cc2)cc(OC)c1OC [C16, 4-fluoro-3’,4’,5’-trimethoxychalcone]",ALP,[1],118±33 IU/L
same,ALT,[1],70±40 IU/L
same,AST,[1],345±365 IU/L
same,BASO,[1],0.2±0.2%
same,CHO,[1],96 ± 21 mg/dL
same,EO,[1],0±0%
same,GLUC,[1],218 ± 30 mg/dL
same,HCT,[1],44.5±5.2%
same,HGB,[1],12.2 ± 0.2 g/dL
same,IG,[1],0.04±0.06 10^3/μL
same,LYMP,[1],79.2±3.4%
same,MCH,[1],14.7 ± 1.5 pg
same,MCV,[1],53.4 ± 1.8 fL
same,MONO,[1],2.5±0.6%
same,NEUT,[1],16.9±4.9%
same,NRBC,[1],0.75±1.06 10^3/μL
same,PLT,[1],281±33 10^3/μL
same,RBC,[1],8.32±0.69 10^6/μL
same,TP,[1],42.0 ± 4.5 g/L
same,TRIGL,[1],110 ± 45 mg/dL
same,WBC,[1],3.05±0.08 10^3/μL
same,Organ weight: Kidneys,100 mg/kg cohort,0.45 ± 0.02 g
same,Organ weight: Liver,100 mg/kg cohort,1.67 ± 0.33 g
same,Organ weight: Spleen,100 mg/kg cohort,0.16 ± 0.06 g
same,"Daily gel consumption, average","100 mg/kg cohort, Day 1",14.9 g/animal
same,"Feed consumption, average","100 mg/kg cohort, Day 1",4.8 g/animal
same,Animal weight,"100 mg/kg cohort, Day 1, Average±SD",30.0 ± 1.7 g
same,"Daily gel consumption, average","100 mg/kg cohort, Day 2",12.3 g/animal
same,"Feed consumption, average","100 mg/kg cohort, Day 2",5.4 g/animal
same,Animal weight,"100 mg/kg cohort, Day 2, Average±SD",30.6 ± 1.6 g
same,"Daily gel consumption, average","100 mg/kg cohort, Day 3",11.2 g/animal
same,"Feed consumption, average","100 mg/kg cohort, Day 3",6.1 g/animal
same,Animal weight,"100 mg/kg cohort, Day 3, Average±SD",31.2 ± 2.0 g
same,"Daily gel consumption, average","100 mg/kg cohort, Day 4",15.1 g/animal
same,"Feed consumption, average","100 mg/kg cohort, Day 4",6.9 g/animal
same,Animal weight,"100 mg/kg cohort, Day 4, Average±SD",32.0 ± 2.1 g
same,"Daily gel consumption, average","100 mg/kg cohort, Day 5",18.1 g/animal
same,"Feed consumption, average","100 mg/kg cohort, Day 5",5.9 g/animal
same,Animal weight,"100 mg/kg cohort, Day 5, Average±SD",32.4 ± 2.0 g
same,"Daily gel consumption, average","100 mg/kg cohort, Day 6",13.1 g/animal
same,"Feed consumption, average","100 mg/kg cohort, Day 6",5.6 g/animal
same,Animal weight,"100 mg/kg cohort, Day 6, Average±SD",32.1 ± 2.0 g
same,"Daily gel consumption, average","100 mg/kg cohort, Day 7",11.8 g/animal
same,"Feed consumption, average","100 mg/kg cohort, Day 7",5.6 g/animal
same,Animal weight,"100 mg/kg cohort, Day 7, Average±SD",32.7 ± 2.2 g
same,Hyperactivity and increased anxiety on opening of the cages,100 mg/kg cohort,slightly noticeable
same,IG,[2],0 10^3/μL
same,LYMP,[2],60.1%
same,NEUT,[2],39.9%
same,ALP,[3],94±18 IU/L
same,ALT,[3],43±9 IU/L
same,AST,[3],221±65 IU/L
same,BASO,[3],0±0%
same,CHO,[3],73 ± 18 mg/dL
same,EO,[3],0±0%
same,GLUC,[3],206±24 ^a mg/dL
same,HCT,[3],34.0±7.78%
same,HGB,[3],10.1 ± 2.9 g/dL
same,MCH,[3],16.0 ± 0.2 pg
same,MCV,[3],54.5 ± 4.24 fL
same,MONO,[3],2.6±3.7%
same,NRBC,[3],0.35±0.49 10^3/μL
same,RBC,[3],6.32±1.92 10^6/μL
same,TP,[3],31.6 ± 21.3 g/L
same,TRIGL,[3],123 ± 55 mg/dL
same,WBC,[3],2.97±0.94 10^3/μL
same,Organ weight: Liver,300 mg/kg cohort,1.70 ± 0.19 g
same,Organ weight: Spleen,300 mg/kg cohort,0.15 ± 0.04 g
same,Organ weight: Kidneys,"300 mg/kg cohort, p 0.001",0.39 ± 0.02 g
same,"Daily gel consumption, average","300 mg/kg cohort, Day 1",15.2 g/animal
same,"Feed consumption, average","300 mg/kg cohort, Day 1",6.0 g/animal
same,Animal weight,"300 mg/kg cohort, Day 1, Average±SD",28.6 ± 0.6 g
same,"Daily gel consumption, average","300 mg/kg cohort, Day 2",12.6 g/animal
same,"Feed consumption, average","300 mg/kg cohort, Day 2",6.3 g/animal
same,Animal weight,"300 mg/kg cohort, Day 2, Average±SD",29.8 ± 0.7 g
same,"Daily gel consumption, average","300 mg/kg cohort, Day 3",14.7 g/animal
same,"Feed consumption, average","300 mg/kg cohort, Day 3",8.4 g/animal
same,Animal weight,"300 mg/kg cohort, Day 3, Average±SD",29.6 ± 0.8 g
same,"Daily gel consumption, average","300 mg/kg cohort, Day 4",12.9 g/animal
same,"Feed consumption, average","300 mg/kg cohort, Day 4",6.6 g/animal
same,Animal weight,"300 mg/kg cohort, Day 4, Average±SD",30.5 ± 1.4 g
same,"Daily gel consumption, average","300 mg/kg cohort, Day 5",15.4 g/animal
same,"Feed consumption, average","300 mg/kg cohort, Day 5",6.1 g/animal
same,Animal weight,"300 mg/kg cohort, Day 5, Average±SD",30.7 ± 1.6 g
same,"Daily gel consumption, average","300 mg/kg cohort, Day 6",13.6 g/animal
same,"Feed consumption, average","300 mg/kg cohort, Day 6",7.1 g/animal
same,Animal weight,"300 mg/kg cohort, Day 6, Average±SD",31.1 ± 1.8 g
same,"Daily gel consumption, average","300 mg/kg cohort, Day 7",12.9 g/animal
same,"Feed consumption, average","300 mg/kg cohort, Day 7",6.2 g/animal
same,Animal weight,"300 mg/kg cohort, Day 7, Average±SD",31.3 ± 1.2 g
same,Hyperactivity and increased anxiety on opening of the cages,300 mg/kg cohort,noticeable
same,Kidney weight versus 100 mg/kg and 0 mg/kg cohort,"300 mg/kg cohort, p = 0.001",slight but significant decrease
same,Gross lesions on detailed necropsy,"medicated gel, 7 days",No gross lesions
same,Histology of the kidney and spleen,"medicated gel, 7 days",no abnormalities
